# Tested on: Klebsiella aerogenes
# Assay: Antibacterial activity against Enterobacter aerogenes MTCC 39 assessed as inhibition zones at 300 ug/disk at 37 degC for 24 hr
# Assay type: functional
# Conditions: MTCC 39, 24 h, read-out: IZ
row,Structure (SMILES),zone of inhibition at 300 µg/disc [mm]
1,COc1ccc(Cc2ccc(OC)c(C3SC4C(=NN(Cc5ccccc5)C4c4ccc(F)cc4)N3c3ccc(C)cc3)c2)cc1C1SC2C(=NN(Cc3ccccc3)C2c2ccc(F)cc2)N1c1ccc(C)cc1 (centres undefined),22

# Tested on: Trichophyton mentagrophytes
# Assay: Antifungal activity against Trichophyton mentagrophytes IFO 40996 assessed as growth inhibition at 37 degC for 48 hr
# Assay type: functional
# Conditions: IFO 40996, 48 h
Structure (SMILES),MBC [µg/mL],MIC [µg/mL]
COc1ccc(Cc2ccc(OC)c(C3SC4C(=NN(Cc5ccccc5)C4c4ccc(F)cc4)N3c3ccc(C)cc3)c2)cc1C1SC2C(=NN(Cc3ccccc3)C2c2ccc(F)cc2)N1c1ccc(C)cc1 (centres undefined),25,25

# Tested on: Pseudomonas aeruginosa
# Assay: Antibacterial activity against Pseudomonas aeruginosa MTCC 741 assessed as inhibition zones at 300 ug/disk at 37 degC for 24 hr
# Assay type: functional
# Conditions: MTCC 741, 24 h, read-out: IZ
row,Structure (SMILES),zone of inhibition at 300 µg/disc [mm]
1,COc1ccc(Cc2ccc(OC)c(C3SC4C(=NN(Cc5ccccc5)C4c4ccc(F)cc4)N3c3ccc(C)cc3)c2)cc1C1SC2C(=NN(Cc3ccccc3)C2c2ccc(F)cc2)N1c1ccc(C)cc1 (centres undefined),14

# Tested on: Trichophyton rubrum
# Assay: Antifungal activity against Trichophyton rubrum IFO 9185 assessed as growth inhibition at 300 ug/disk at 37 degC for 48 hr
# Assay type: functional
# Conditions: IFO 9185, 48 h, read-out: IZ
row,Structure (SMILES),zone of inhibition at 300 µg/disc [mm]
1,COc1ccc(Cc2ccc(OC)c(C3SC4C(=NN(Cc5ccccc5)C4c4ccc(F)cc4)N3c3ccc(C)cc3)c2)cc1C1SC2C(=NN(Cc3ccccc3)C2c2ccc(F)cc2)N1c1ccc(C)cc1 (centres undefined),15

# Tested on: Lysinibacillus sphaericus
# Assay: Antibacterial activity against Lysinibacillus sphaericus MTCC 11 assessed as growth arrest at 37 degC for 24 hr
# Assay type: functional
# Conditions: MTCC 11, 24 h
Structure (SMILES),MBC [µg/mL],MIC [µg/mL]
COc1ccc(Cc2ccc(OC)c(C3SC4C(=NN(Cc5ccccc5)C4c4ccc(F)cc4)N3c3ccc(C)cc3)c2)cc1C1SC2C(=NN(Cc3ccccc3)C2c2ccc(F)cc2)N1c1ccc(C)cc1 (centres undefined),12.5,6.25

# Tested on: Chromobacterium violaceum
# Assay: Antibacterial activity against Chromobacterium violaceum MTCC 2656 assessed as inhibition zones at 300 ug/disk at 37 degC for 24 hr
# Assay type: functional
# Conditions: MTCC 2656, 24 h, read-out: IZ
row,Structure (SMILES),zone of inhibition at 300 µg/disc [mm]
1,COc1ccc(Cc2ccc(OC)c(C3SC4C(=NN(Cc5ccccc5)C4c4ccc(F)cc4)N3c3ccc(C)cc3)c2)cc1C1SC2C(=NN(Cc3ccccc3)C2c2ccc(F)cc2)N1c1ccc(C)cc1 (centres undefined),17

# Tested on: Pseudomonas aeruginosa
# Assay: Antibacterial activity against Pseudomonas aeruginosa MTCC 741 assessed as growth arrest at 37 degC for 24 hr
# Assay type: functional
# Conditions: MTCC 741, 24 h
Structure (SMILES),MBC [µg/mL],MIC [µg/mL]
COc1ccc(Cc2ccc(OC)c(C3SC4C(=NN(Cc5ccccc5)C4c4ccc(F)cc4)N3c3ccc(C)cc3)c2)cc1C1SC2C(=NN(Cc3ccccc3)C2c2ccc(F)cc2)N1c1ccc(C)cc1 (centres undefined),25,12.5

# Tested on: Candida albicans
# Assay: Antifungal activity against Candida albicans ATCC 10231 assessed as growth inhibition at 37 degC for 48 hr
# Assay type: functional
# Conditions: ATCC 10231, 48 h
Structure (SMILES),MBC [µg/mL],MIC [µg/mL]
COc1ccc(Cc2ccc(OC)c(C3SC4C(=NN(Cc5ccccc5)C4c4ccc(F)cc4)N3c3ccc(C)cc3)c2)cc1C1SC2C(=NN(Cc3ccccc3)C2c2ccc(F)cc2)N1c1ccc(C)cc1 (centres undefined),6.25,3.12

# Tested on: Bacillus subtilis
# Assay: Antibacterial activity against Bacillus subtilis MTCC 441 assessed as inhibition zones at 300 ug/disk at 37 degC for 24 hr
# Assay type: functional
# Conditions: MTCC 441, 24 h, read-out: IZ
row,Structure (SMILES),zone of inhibition at 300 µg/disc [mm]
1,COc1ccc(Cc2ccc(OC)c(C3SC4C(=NN(Cc5ccccc5)C4c4ccc(F)cc4)N3c3ccc(C)cc3)c2)cc1C1SC2C(=NN(Cc3ccccc3)C2c2ccc(F)cc2)N1c1ccc(C)cc1 (centres undefined),20

# Tested on: Candida albicans
# Assay: Antifungal activity against Candida albicans ATCC 10231 assessed as growth inhibition at 300 ug/disk at 37 degC for 48 hr
# Assay type: functional
# Conditions: ATCC 10231, 48 h, read-out: IZ
row,Structure (SMILES),zone of inhibition at 300 µg/disc [mm]
1,COc1ccc(Cc2ccc(OC)c(C3SC4C(=NN(Cc5ccccc5)C4c4ccc(F)cc4)N3c3ccc(C)cc3)c2)cc1C1SC2C(=NN(Cc3ccccc3)C2c2ccc(F)cc2)N1c1ccc(C)cc1 (centres undefined),22

# Tested on: Trichophyton rubrum
# Assay: Antifungal activity against Trichophyton rubrum IFO 9185 assessed as growth inhibition at 37 degC for 48 hr
# Assay type: functional
# Conditions: IFO 9185, 48 h
Structure (SMILES),MBC [µg/mL],MIC [µg/mL]
COc1ccc(Cc2ccc(OC)c(C3SC4C(=NN(Cc5ccccc5)C4c4ccc(F)cc4)N3c3ccc(C)cc3)c2)cc1C1SC2C(=NN(Cc3ccccc3)C2c2ccc(F)cc2)N1c1ccc(C)cc1 (centres undefined),25,12.5

# Tested on: Staphylococcus aureus
# Assay: Antibacterial activity against Staphylococcus aureus MTCC 96 assessed as growth arrest at 37 degC for 24 hr
# Assay type: functional
# Conditions: MTCC 96, 24 h
Structure (SMILES),MBC [µg/mL],MIC [µg/mL]
COc1ccc(Cc2ccc(OC)c(C3SC4C(=NN(Cc5ccccc5)C4c4ccc(F)cc4)N3c3ccc(C)cc3)c2)cc1C1SC2C(=NN(Cc3ccccc3)C2c2ccc(F)cc2)N1c1ccc(C)cc1 (centres undefined),6.25,6.25

# Tested on: Aspergillus fumigatus
# Assay: Antifungal activity against Aspergillus fumigatus HIC 6094 assessed as growth inhibition at 37 degC for 48 hr
# Assay type: functional
# Conditions: HIC 6094, 48 h
Structure (SMILES),MBC [µg/mL],MIC [µg/mL]
COc1ccc(Cc2ccc(OC)c(C3SC4C(=NN(Cc5ccccc5)C4c4ccc(F)cc4)N3c3ccc(C)cc3)c2)cc1C1SC2C(=NN(Cc3ccccc3)C2c2ccc(F)cc2)N1c1ccc(C)cc1 (centres undefined),25,25

# Tested on: Lysinibacillus sphaericus
# Assay: Antibacterial activity against Lysinibacillus sphaericus MTCC 11 assessed as inhibition zones at 300 ug/disk at 37 degC for 24 hr
# Assay type: functional
# Conditions: MTCC 11, 24 h, read-out: IZ
row,Structure (SMILES),zone of inhibition at 300 µg/disc [mm]
1,COc1ccc(Cc2ccc(OC)c(C3SC4C(=NN(Cc5ccccc5)C4c4ccc(F)cc4)N3c3ccc(C)cc3)c2)cc1C1SC2C(=NN(Cc3ccccc3)C2c2ccc(F)cc2)N1c1ccc(C)cc1 (centres undefined),14

# Tested on: Klebsiella aerogenes
# Assay: Antibacterial activity against Enterobacter aerogenes MTCC 39 assessed as growth arrest at 37 degC for 24 hr
# Assay type: functional
# Conditions: MTCC 39, 24 h
Structure (SMILES),MBC [µg/mL],MIC [µg/mL]
COc1ccc(Cc2ccc(OC)c(C3SC4C(=NN(Cc5ccccc5)C4c4ccc(F)cc4)N3c3ccc(C)cc3)c2)cc1C1SC2C(=NN(Cc3ccccc3)C2c2ccc(F)cc2)N1c1ccc(C)cc1 (centres undefined),50,12.5

# Tested on: Trichophyton mentagrophytes
# Assay: Antifungal activity against Trichophyton mentagrophytes IFO 40996 assessed as growth inhibition at 300 ug/disc at 37 degC for 48 hr
# Assay type: functional
# Conditions: IFO 40996, 48 h, read-out: IZ
row,Structure (SMILES),zone of inhibition at 300 µg/disc [mm]
1,COc1ccc(Cc2ccc(OC)c(C3SC4C(=NN(Cc5ccccc5)C4c4ccc(F)cc4)N3c3ccc(C)cc3)c2)cc1C1SC2C(=NN(Cc3ccccc3)C2c2ccc(F)cc2)N1c1ccc(C)cc1 (centres undefined),16

# Tested on: Aspergillus fumigatus
# Assay: Antifungal activity against Aspergillus fumigatus HIC 6094 assessed as growth inhibition at 300 ug/disc at 37 degC for 48 hr
# Assay type: functional
# Conditions: HIC 6094, 48 h, read-out: IZ
row,Structure (SMILES),zone of inhibition at 300 µg/disc [mm]
1,COc1ccc(Cc2ccc(OC)c(C3SC4C(=NN(Cc5ccccc5)C4c4ccc(F)cc4)N3c3ccc(C)cc3)c2)cc1C1SC2C(=NN(Cc3ccccc3)C2c2ccc(F)cc2)N1c1ccc(C)cc1 (centres undefined),16

# Tested on: Staphylococcus aureus
# Assay: Antibacterial activity against Staphylococcus aureus MTCC 96 assessed as inhibition zones at 300 ug/disc at 37 degC for 24 hr
# Assay type: functional
# Conditions: MTCC 96, 24 h, read-out: IZ
row,Structure (SMILES),zone of inhibition at 300 µg/disc [mm]
1,COc1ccc(Cc2ccc(OC)c(C3SC4C(=NN(Cc5ccccc5)C4c4ccc(F)cc4)N3c3ccc(C)cc3)c2)cc1C1SC2C(=NN(Cc3ccccc3)C2c2ccc(F)cc2)N1c1ccc(C)cc1 (centres undefined),24

# Tested on: Bacillus subtilis
# Assay: Antibacterial activity against Bacillus subtilis MTCC 441 assessed as growth arrest at 37 degC for 24 hr
# Assay type: functional
# Conditions: MTCC 441, 24 h
Structure (SMILES),MBC [µg/mL],MIC [µg/mL]
COc1ccc(Cc2ccc(OC)c(C3SC4C(=NN(Cc5ccccc5)C4c4ccc(F)cc4)N3c3ccc(C)cc3)c2)cc1C1SC2C(=NN(Cc3ccccc3)C2c2ccc(F)cc2)N1c1ccc(C)cc1 (centres undefined),12.5,6.25

# Tested on: Caenorhabditis elegans
# Assay: Nematicidal activity against Caenorhabditis elegans assessed as immobility
# Assay type: functional
# Conditions: read-out: LD50 (the source's name)
row,Structure (SMILES),LC50 [µg/mL]
1,COc1ccc(Cc2ccc(OC)c(C3SC4C(=NN(Cc5ccccc5)C4c4ccc(F)cc4)N3c3ccc(C)cc3)c2)cc1C1SC2C(=NN(Cc3ccccc3)C2c2ccc(F)cc2)N1c1ccc(C)cc1 (centres undefined),210
2,CNC(=O)O/N=C(\SC)C(=O)N(C)C [OXAMYL],180

# Tested on: Chromobacterium violaceum
# Assay: Antibacterial activity against Chromobacterium violaceum MTCC 2656 assessed as growth arrest at 37 degC for 24 hr
# Assay type: functional
# Conditions: MTCC 2656, 24 h
Structure (SMILES),MBC [µg/mL],MIC [µg/mL]
COc1ccc(Cc2ccc(OC)c(C3SC4C(=NN(Cc5ccccc5)C4c4ccc(F)cc4)N3c3ccc(C)cc3)c2)cc1C1SC2C(=NN(Cc3ccccc3)C2c2ccc(F)cc2)N1c1ccc(C)cc1 (centres undefined),12.5,12.5

# Tested on: Ditylenchus myceliophagus
# Assay: Nematicidal activity against Ditylenchus myceliophagus assessed as immobility
# Assay type: functional
# Conditions: read-out: LD50 (the source's name)
row,Structure (SMILES),LC50 [µg/mL]
1,COc1ccc(Cc2ccc(OC)c(C3SC4C(=NN(Cc5ccccc5)C4c4ccc(F)cc4)N3c3ccc(C)cc3)c2)cc1C1SC2C(=NN(Cc3ccccc3)C2c2ccc(F)cc2)N1c1ccc(C)cc1 (centres undefined),190
2,CNC(=O)O/N=C(\SC)C(=O)N(C)C [OXAMYL],150
